Calls of active or inactive are those of the source. The rule behind the calls is not given here.
Experiments:
[1] = target: T1, Bile acid receptor (Homo sapiens) (UniProt Q96RI1); assay: Antagonist activity at human FXR in HepG2 cells assessed as reversal of CDCA-induced increase in PEPCK mRNA expression level at 0.1 to 1 uM dosed after 24 hrs starvation followed by CDCA addition and measured after 18 hrs by RT-PCR analysis
T1 sequence (whole entry): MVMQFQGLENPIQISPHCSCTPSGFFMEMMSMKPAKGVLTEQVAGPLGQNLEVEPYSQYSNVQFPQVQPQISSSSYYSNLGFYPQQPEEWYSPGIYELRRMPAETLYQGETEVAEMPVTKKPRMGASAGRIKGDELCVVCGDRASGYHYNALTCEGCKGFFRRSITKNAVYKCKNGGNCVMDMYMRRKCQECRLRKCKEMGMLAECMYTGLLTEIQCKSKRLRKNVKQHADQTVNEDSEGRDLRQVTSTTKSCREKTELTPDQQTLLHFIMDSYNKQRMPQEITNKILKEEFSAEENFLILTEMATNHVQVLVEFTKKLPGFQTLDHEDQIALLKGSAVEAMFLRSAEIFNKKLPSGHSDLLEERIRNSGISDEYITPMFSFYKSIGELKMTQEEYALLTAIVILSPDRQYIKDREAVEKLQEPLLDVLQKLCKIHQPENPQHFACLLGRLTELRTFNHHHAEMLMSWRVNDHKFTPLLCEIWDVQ

[2] = Intrinsic clearance in rat liver microsomes at 1 uM incubated for 2 hrs by LC-MS/MS analysis; conditions: read-out: CLH
[3] = target: T1, Bile acid receptor (Homo sapiens); assay: Antagonist activity at human FXR in HepG2 cells assessed as reversal of CDCA-induced increase in […] mRNA expression level at 0.1 to 1 uM dosed after 24 hrs starvation followed by CDCA addition and measured after 18 hrs by RT-PCR analysis
[4] = target: T2, Peroxisome proliferator-activated receptor gamma (Homo sapiens) (UniProt P37231); assay: Agonist activity at human PPARgamma transfected in HepG2 at 10 uM by luciferase reporter assay; type: cell-based
T2 sequence (whole entry): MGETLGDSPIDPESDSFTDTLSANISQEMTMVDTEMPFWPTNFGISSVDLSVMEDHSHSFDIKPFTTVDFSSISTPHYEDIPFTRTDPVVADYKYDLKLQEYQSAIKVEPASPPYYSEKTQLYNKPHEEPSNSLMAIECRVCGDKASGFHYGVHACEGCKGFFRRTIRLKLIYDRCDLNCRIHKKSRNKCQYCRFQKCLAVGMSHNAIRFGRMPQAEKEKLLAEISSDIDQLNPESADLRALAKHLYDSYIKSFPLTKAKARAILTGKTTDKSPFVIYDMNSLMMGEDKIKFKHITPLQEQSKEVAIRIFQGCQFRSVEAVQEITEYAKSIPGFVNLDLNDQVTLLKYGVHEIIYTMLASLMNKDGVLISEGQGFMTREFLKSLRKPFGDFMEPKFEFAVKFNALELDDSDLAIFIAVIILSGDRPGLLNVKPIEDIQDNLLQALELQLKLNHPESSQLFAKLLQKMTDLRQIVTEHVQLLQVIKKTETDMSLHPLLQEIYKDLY

[5] = target: T1, Bile acid receptor (Homo sapiens); assay: Transactivation of human FXR transfected in HepG2 cells at 10 uM by luciferase reporter assay; type: cell-based
[6] = target: T2, Peroxisome proliferator-activated receptor gamma (Homo sapiens); assay: Antagonist activity at human PPARgamma transfected in HepG2 at 5 uM in presence of PPARgamma agonist rosiglitazone by luciferase reporter assay; type: cell-based
[7] = Metabolic stability in rat liver microsomes assessed as parent compound remaining at 1 uM measured after 40 mins by LC-MS/MS analysis

Activity [1]: Active
microsomal CLint at 1 µM [2]: 20.7 µL/min/mg
Activity [3]: Active
Activity [4]: inactive
Activity [5]: inactive
Activity [6]: inactive
remaining at 40 min, 1 µM [7]: 76.2%
Structure (SMILES): c1ccc2cc(-c3noc(C4CCNCC4)n3)ccc2c1
